{"source": "patent US20220348572A1", "about": "“BRIDGED HETEROCYCLYL-SUBSTITUTED PYRIMIDINE COMPOUND, PREPARATION METHOD THEREFOR, AND PHARMACEUTICAL USE THEREOF” (The National Institutes of Pharmaceutical R&D Co., Ltd., priority 2019, published 2022)", "molecular_target": "T1, JAK1 kinase (Homo sapiens, UniProt P23458)", "T1 construct": "purchased Invitrogen PV4744", "T1 sequence (P23458 866-1154 limits assumed)": "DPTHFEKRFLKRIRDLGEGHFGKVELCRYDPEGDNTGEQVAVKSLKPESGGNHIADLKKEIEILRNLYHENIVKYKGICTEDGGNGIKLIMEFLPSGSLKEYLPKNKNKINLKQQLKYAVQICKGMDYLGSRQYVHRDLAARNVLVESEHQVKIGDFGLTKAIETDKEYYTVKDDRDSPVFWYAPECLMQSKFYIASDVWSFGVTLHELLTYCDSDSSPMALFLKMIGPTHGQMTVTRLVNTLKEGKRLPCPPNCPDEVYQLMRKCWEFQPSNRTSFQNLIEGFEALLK", "assay": "In vitro inhibitory activity on JAK1 kinase (ADP-Glo Kinase Assay)", "assay_type": "biochemical", "conditions": "JAK1 kinase 4 nM, 1 mM ATP", "description": "Test Example 1: Determination of In Vitro Inhibitory Activity of the Compounds of the Present Invention on JAK1 Kinase Experimental materials: JAK1 kinase (Invitrogen, PV4744), ATP (Promega, V915B), ADP-Glo Kinase Assay (Promega, V9101), IRS1 (Signalchem, 140-58-1000). Sample preparation: The compounds of the present invention and the control product were dissolved in DMSO solvent respectively to formulate into 10 mM initial liquid. The maximum concentration of the compound was 10 μM, 3-fold dilution, 10 concentration gradients, and duplicate wells for each concentration gradient. Experimental processs: 0.1 μL of the compound to be tested was transferred into a 384 reaction plate (PE, 6007290) via Echo and centrifuged at 1000 rpm/min for 1 min. 5 μL JAK1 kinase (final concentration of 4 nM) was transferred into the 384 reaction plate, which was then centrifuged at 1000 rpm/min for 1 min, and incubated at 25° C. for 15 min. 5 μL substrate mixture (1 mM ATP, IRS1 0.05 mg/ml, kinase buffer solution) was transferred into the 384 reaction plate, which was then centrifuged at 1000 rpm/min for 1 min, and incubated at 25° C. for 60 min. 10 μL ADP-Glo was transferred into the 384 reaction plate, which was then centrifuged at 1000 rpm/min for 1 min, and incubated at 25° C. for 40 min. 20 μL test solution was transferred into the 384 reaction plate, which was then centrifuged at 1000 rpm/min for 1 min and incubated at 25° C. for 40 min. RLU (Relative luminescence unit) signal was read by using an Envision multifunctional plate reader. The signal intensity was used to characterize the degree of the kinase activity. […] IC50 value of 0-100 nM is shown as A, IC50 value of 100-300 nM is shown as B, IC50 value of 300-1000 nM is shown as C, and IC50 value which is greater than 1000 nM is shown as D. NT means not tested.", "data": [{"smiles": "Cc1cnc(Nc2cnn(CC(C)(C)O)c2)nc1C1=C[C@H]2CC[C@@H](C1)N2C(=O)NCC(F)(F)F", "note": "[Compound 29-b, (1R,5S)-3-(2-((1-(2-Hydroxy-2-methylpropyl)-1H-pyrazol-4-yl)amino)-5-methylpyrimidin-4-yl)-N-(2,2,2-trifluoroethyl)-8-azabicyclo[3.2.1]oct-2-ene-8-carboxamide]", "values": [{"measurement": "IC50", "result": "< 100", "unit": "nM"}]}, {"smiles": "Cn1cc(Nc2nccc(C3=CC4CCC(C3)N4C(=O)C3CC3(F)Cl)n2)cn1", "note": "(stereo not drawn) [Compound 50, (2-chloro-2-fluorocyclopropyl)(3-(2-((1-methyl-1H-pyrazol-4-yl)amino)pyrimidin-4-yl)-8-azabicyclo[3.2.1]oct-2-en-8-yl)methanone]", "values": [{"measurement": "IC50", "result": "100 to 300", "unit": "nM"}]}, {"smiles": "Cn1cc(Nc2nccc(C3=CC4CCC(C3)N4C(=O)C3CC3c3ccccc3)n2)cn1", "note": "(stereo not drawn) [Compound 59]", "values": [{"measurement": "IC50", "result": "300 to 1000", "unit": "nM"}]}, {"smiles": "Cn1cc(Nc2nccc(C3=CC4CCC(C3)N4C(=O)N3CCC(F)(F)C3)n2)cn1", "note": "(stereo not drawn) [Compound 8, (3,3-difluoropyrrolidin-1-yl)(3-(2-((1-methyl-1H-pyrazol-4-yl)amino)pyrimidin-4-yl)-8-azabicyclo[3.2.1]oct-2-en-8-yl)methanone]", "values": [{"measurement": "IC50", "result": "300 to 1000", "unit": "nM"}]}, {"smiles": "Cc1cnc(Nc2cnn(C3COC3)c2)nc1C1=CC2CCC(C1)N2C(=O)NCC(F)(F)F", "note": "(stereo not drawn) [Compound 30, 3-(5-Methyl-2-((1-(oxetan-3-yl)-1H-pyrazol-4-yl)amino)pyrimidin-4-yl)-N-(2,2,2-trifluoroethyl)-8-azabicyclo[3.2.1]oct-2-ene-8-carboxamide]", "values": [{"measurement": "IC50", "result": "< 100", "unit": "nM"}]}, {"smiles": "Cn1cc(Nc2nccc(C3=CC4CCC(C3)N4C(=O)NC3CC3(F)F)n2)cn1", "note": "(stereo not drawn) [Compound 14, N-(2,2-difluorocyclopropyl)-3-(2-((1-methyl-1H-pyrazol-4-yl)amino)pyrimidin-4-yl)-8-azabicyclo[3.2.1]oct-2-ene-8-carboxamide]", "values": [{"measurement": "IC50", "result": "100 to 300", "unit": "nM"}]}, {"smiles": "Cc1cnc(Nc2cnn(C3CC3)c2)nc1C1=CC2CCC(C1)N2C(=O)NCC(F)(F)F", "note": "(stereo not drawn) [Compound 31, 3-(2-((1-Cyclopropyl-1H-pyrazol-4-yl)amino)-5-methylpyrimidin-4-yl)-N-(2,2,2-trifluoroethyl)-8-azabicyclo[3.2.1]oct-2-ene-8-carboxamide]", "values": [{"measurement": "IC50", "result": "< 100", "unit": "nM"}]}, {"smiles": "Cn1cc(Nc2nccc(C3=CC4CCC(C3)N4C(=O)c3ccc(C(F)(F)F)cc3)n2)cn1", "note": "(stereo not drawn) [Compound 16, (3-(2-((1-methyl-1H-pyrazol-4-yl)amino)pyrimidin-4-yl)-8-azabicyclo[3.2.1]oct-2-en-8-yl)(4-(trifluoromethyl)phenyl)methanone]", "values": [{"measurement": "IC50", "result": "> 1000", "unit": "nM"}]}, {"smiles": "Cn1cc(Nc2nccc(C3=CC4CCC(C3)N4S(=O)(=O)CCC(F)(F)F)n2)cn1", "note": "(stereo not drawn) [Compound 6, N-(1-methyl-1H-pyrazol-4-yl)-4-(8-((3,3,3-trifluoropropyl)sulfonyl)-8-azabicyclo[3.2.1]oct-2-en-3-yl)pyrimidin-2-amine]", "values": [{"measurement": "IC50", "result": "> 1000", "unit": "nM"}]}, {"smiles": "Cn1cc(Nc2ncc(C(F)(F)F)c(C3=CC4CCC(C3)N4C(=O)NCC(F)(F)F)n2)cn1", "note": "(stereo not drawn) [Compound 25, 3-(2-((1-Methyl-1H-pyrazol-4-yl)amino)-5-(trifluoromethyl)pyrimidin-4-yl)-N-(2,2,2-trifluoroethyl)-8-azabicyclo[3.2.1]oct-2-ene-8-carboxamide]", "values": [{"measurement": "IC50", "result": "300 to 1000", "unit": "nM"}]}, {"smiles": "Cn1cc(Nc2nccc(C3=CC4CCC(C3)N4C(=O)CCC(F)(F)F)n2)cn1", "note": "(stereo not drawn) [Compound 5, 4,4,4-trifluoro-1-(3-(2-((1-methyl-1H-pyrazol-4-yl)amino)pyrimidin-4-yl)-8-azabicyclo[3.2.1]oct-2-en-8-yl)butan-1-one]", "values": [{"measurement": "IC50", "result": "300 to 1000", "unit": "nM"}]}, {"smiles": "Cn1cc(Nc2nccc(C3=CC4CCC(C3)N4CC3(C)COC3)n2)cn1", "note": "(stereo not drawn) [Compound 87, N-(1-methyl-1H-pyrazol-4-yl)-4-(8-((3-methyloxetan-3-yl)methyl)-8-azabicyclo[3.2.1]oct-2-en-3-yl)pyrimidin-2-amine]", "values": [{"measurement": "IC50", "result": "> 1000", "unit": "nM"}]}, {"smiles": "Cn1cc(Nc2nccc(C3=CC4CCC(C3)N4C(=O)C3CC3(C)C)n2)cn1", "note": "(stereo not drawn) [Compound 60, (2,2-Dimethylcyclopropyl)(3-(2-((1-methyl-1H-pyrazol-4-yl)amino)pyrimidin-4-yl)-8-azabicyclo[3.2.1]oct-2-en-8-yl)methanone]", "values": [{"measurement": "IC50", "result": "> 1000", "unit": "nM"}]}, {"smiles": "Cn1cc(Nc2nccc(C3=CC4CCC(C3)N4C(=O)C3CCC3C#N)n2)cn1", "note": "(stereo not drawn) [Compound 77, 2-(3-(2-((1-methyl-1H-pyrazol-4-yl)amino)pyrimidin-4-yl)-8-azabicyclo[3.2.1]oct-2-ene-8-formyl)cyclobutane-1-carbonitrile]", "values": [{"measurement": "IC50", "result": "< 100", "unit": "nM"}]}, {"smiles": "Cn1cc(Nc2nccc(C3=CC4CCC(C3)N4C(=O)C3(C#N)CCOCC3)n2)cn1", "note": "(stereo not drawn) [Compound 64, 4-(3-(2-((1-methyl-1H-pyrazol-4-yl)amino)pyrimidin-4-yl)-8-azabicyclo[3.2.1]oct-2-ene-8-carbonyl)tetrahydro-2H-pyran-4-cyano]", "values": [{"measurement": "IC50", "result": "300 to 1000", "unit": "nM"}]}, {"smiles": "C[C@H](NC(=O)N1C2C=C(c3ccnc(Nc4cnn(C)c4)n3)CC1CC2)C(F)(F)F", "note": "(stereo partly drawn) [Compound 55, 3-(2-((1-Methyl-1H-pyrazol-4-yl)amino)pyrimidin-4-yl)-N-((S)-1,1,1-trifluoropropane-2-yl)-8-azabicyclo[3.2.1]oct-2-ene-8-carboxamide]", "values": [{"measurement": "IC50", "result": "< 100", "unit": "nM"}]}, {"smiles": "Cn1cc(Nc2nccc(C3=CC4CCC(C3)N4C(=O)C3(C(F)(F)F)CC3)n2)cn1", "note": "(stereo not drawn) [Compound 52, (3-(2-((1-methyl-1H-pyrazol-4-yl)amino)pyrimidin-4-yl)-8-azabicyclo[3.2.1]oct-2-en-8-yl)(1-(trifluoromethyl)cyclopropyl)methanone]", "values": [{"measurement": "IC50", "result": "> 1000", "unit": "nM"}]}, {"smiles": "CCCS(=O)(=O)N1CC(N2C3C=C(c4ccnc(Nc5cnn(C)c5)n4)CC2CC3)C1", "note": "(stereo not drawn) [Compound 84, N-(1-methyl-1H-pyrazol-4-yl)-4-(8-(1-(propansulfonyl)azetidin-3-yl)-8-azabicyclo[3.2.1]oct-2-en-3-yl)pyrimidin-2-amine]", "values": [{"measurement": "IC50", "result": "> 1000", "unit": "nM"}]}, {"smiles": "Cn1cc(Nc2nccc(C3=CC4CCC(C3)N4C(=O)C(=O)NCC(F)(F)F)n2)cn1", "note": "(stereo not drawn) [Compound 82, 2-(3-(2-((1-methyl-1H-pyrazol-4-yl)amino)pyrimidin-4-yl)-8-azabicyclo[3.2.1]oct-2-en-8-yl)-2-oxo-N-(2,2,2-trifluoroethyl)acetamide]", "values": [{"measurement": "IC50", "result": "300 to 1000", "unit": "nM"}]}, {"smiles": "Cc1cnc(Nc2cnn(C)c2)nc1C1=CC2CCC(C1)N2C(=O)NCC(F)(F)F", "note": "(stereo not drawn) [Compound 19, 3-(5-methyl-2-((1-methyl-1H-pyrazol-4-yl)amino)pyrimidin-4-yl)-N-(2,2,2-trifluoroethyl)-8-azabicyclo[3.2.1]oct-2-ene-8-carboxamide]", "values": [{"measurement": "IC50", "result": "< 100", "unit": "nM"}]}, {"smiles": "Cc1cnc(Nc2cn(C)nc2C)nc1C1=C[C@H]2CC[C@@H](C1)N2C(=O)NCC(F)(F)F", "note": "[Compound 26-b, (1R,5S)-3-(2-((1,3-dimethyl-1H-pyrazol-4-yl)amino)-5-methylpyrimidin-4-yl)-N-(2,2,2-trifluoroethyl)-8-azabicyclo[3.2.1]oct-2-ene-8-carboxamide]", "values": [{"measurement": "IC50", "result": "< 100", "unit": "nM"}]}, {"smiles": "Cn1cc(Nc2nccc(C3=CC4CCC(C3)N4C(=O)C(C)(C)C(F)(F)F)n2)cn1", "note": "(stereo not drawn) [Compound 68, 3,3,3-trifluoro-2,2-dimethyl-1-(3-(2-((1-methyl-1H-pyrazol-4-yl)amino)pyrimidin-4-yl)-8-azabicyclo[3.2.1]oct-2-en-8-yl)acetone]", "values": [{"measurement": "IC50", "result": "300 to 1000", "unit": "nM"}]}, {"smiles": "NC(=O)Cn1cc(Nc2nccc(C3=CC4CCC(C3)N4C(=O)[C@@H]3CC3(F)F)n2)cn1", "note": "(stereo partly drawn) [Compound 38, 2-(4-((4-(8-((S)-2,2-Difluorocyclopropane-1-formyl)-8-azabicyclo[3.2.1]oct-2-en-3-yl)pyrimidin-2-yl)amino)-1H-pyrazol-1-yl)acetamide]", "values": [{"measurement": "IC50", "result": "< 100", "unit": "nM"}]}, {"smiles": "O=C(NCC(F)(F)F)N1C2C=C(c3ccnc(Nc4cnn(CCO)c4)n3)CC1CC2", "note": "(stereo not drawn) [Compound 42, 3-(2-((1-(2-hydroxyethyl)-1H-pyrazol-4-yl)amino)pyrimidin-4-yl)-N-(2,2,2-trifluoroethyl)-8-azabicyclo[3.2.1]oct-2-ene-8-carboxamide]", "values": [{"measurement": "IC50", "result": "< 100", "unit": "nM"}]}, {"smiles": "Cn1cc(Nc2ncc(Cl)c(C3=CC4CCC(C3)N4C(=O)NCC(F)(F)F)n2)cn1", "note": "(stereo not drawn) [Compound 20, 3-(5-chloro-2-((1-methyl-1H-pyrazol-4-yl)amino)pyrimidin-4-yl)-N-(2,2,2-trifluoroethyl)-8-azabicyclo[3.2.1]oct-2-ene-8-carboxamide]", "values": [{"measurement": "IC50", "result": "< 100", "unit": "nM"}]}, {"smiles": "Cn1cc(Nc2ncc(Cl)c(C3=C[C@H]4CC[C@@H](C3)N4C(=O)[C@@H]3CC3(F)F)n2)cn1", "note": "[Compound 23-b, ((1R,5S)-3-(5-chloro-2-((1-methyl-1H-pyrazol-4-yl)amino)pyrimidin-4-yl)-8-azabicyclo[3.2.1]oct-2-en-8-yl)((S)-2,2-difluorocyclopropyl)methanone]", "values": [{"measurement": "IC50", "result": "< 100", "unit": "nM"}]}, {"smiles": "CC(C#N)C(=O)N1C2C=C(c3ccnc(Nc4cnn(C)c4)n3)CC1CC2", "note": "(stereo not drawn) [Compound 62, 2-methyl-3-(3-(2-((1-methyl-1H-pyrazol-4-yl)amino)pyrimidin-4-yl)-8-azabicyclo[3.2.1]oct-2-en-8-yl)-3-oxopropionitrile]", "values": [{"measurement": "IC50", "result": "100 to 300", "unit": "nM"}]}]}
